Assay results taken from patent US9718792B2, “Isoxazoline hydroxamic acid derivatives as LpxC inhibitors” (priority 2014, dated 2017).
Values after ≈ are worked out from the molar mass of the structure shown. Read-outs that look alike come from different tables or passages of the source.

How the values were obtained:
P. aeruginosa LpxC = P. aeruginosa LpxC (Pseudomonas aeruginosa (strain ATCC 15692 / DSM 22644 / CIP 104116 / JCM 14847 / LMG 12228 / 1C / PRS 101 / PAO1), UniProt P47205); assay: P. aeruginosa LpxC Inhibition Assay; type: biochemical; conditions: 2 μM substrate, LC-MS/MS
Source text: The P. aeruginosa LpxC protein is produced according to the general method of Hyland et al (Journal of Bacteriology 1997 179, 2029-2037: Cloning, expression and purification of UDP-3-O-acyl-GIcNAc deacetylase from Pseudomonas aeruginosa: a metalloamidase of the lipid A biosynthesis pathway). The LC-MS/MS method for quantitation of LpxC product was developed using an Agilent 1200 Capillary HPLC system coupled to an Applied Biosystems MDS Sciex 4000QTRAP mass spectrometer. Both instruments are controlled using the Applied Biosystems MDS Sciex Analyst software. LpxC reaction product (UDP-3-O—(R-3-hydroxyacyl)-glucosamine) was produced by hydrolysis of LpxC substrate catalyzed by P.a. LpxC and purified using reversed phase chromatography on a Phenomenex Luna C18(2) 4.6×50 mm column. An LpxC product calibration curve was generated to evaluate the sensitivity and dynamic range of the LC-MS/MS method. Briefly, compounds are pre-incubated with 1 nM P. aeruginosa LpxC for 30 min. at room temperature. Reactions are initiated by the addition of 2 μM UDP-3-O—(R-3-hydroxydecanoyl)-GIcNAc. Reactions are conducted in a 384-well plate with a total volume of 50 μL in each well containing 50 mM Sodium phosphate pH 7.5, 0.005% Trition X-100 for 20 min at room temperature. After quenching with 1.8% HOAc (5 μL of a 20% HOAc added to each well), reaction mixtures are analyzed using the LC-MS/MS method and peak areas are transformed into product concentration using a LpxC product calibration curve. Total activity (0% inhibition control) is obtained from reactions with no inhibitors and 100% inhibition control is the background using quenched samples before reaction starts. For IC50 determinations, peak areas are converted to percent inhibition in Microsoft Excel. Percent inhibition values are plotted vs. log compound concentration using XLfit. Data is fit to the four-parameter logistic equation using the non-linear regression algorithm in XLfit to return the IC50 and hill slope values.

P. aeruginosa PAO1 = assay: Susceptibility Testing (MIC, broth microdilution); type: cell-based, Pseudomonas aeruginosa; conditions: P. aeruginosa PAO1, broth microdilution, 20 hours; for MIC: Pseudomonas aeruginosa, PAO1, 20 h, read-out: PAO1 MIC
Experimental: Bacterial isolates were cultivated from −70° C. frozen stocks by two consecutive overnight passages at 35° C. in ambient air on 5% blood agar (Remel, Lenexa, Kans.). Quality control and P. aeruginosa ATCC 27853) is from the American Type Culture Collection (ATCC; Rockville, Md.) and PAO1 was received from Dr. K. Poole.
Minimal Inhibitory Concentrations (MICs) were determined by the broth microdilution method in accordance with Clinical and Laboratories Institute (CLSI) guidelines. In brief, fresh bacterial overnight cultures were resuspended in sterile saline, adjusted to a 0.5 McFarland turbidity standard and then diluted […] in cation adjusted Mueller-Hinton Broth II (MHB; Remel BBL) to yield a final inoculum of approximately 5×10^5 colony-forming units (CFU)/mL. Two-fold serial dilutions of compounds were prepared in 100% dimethyl sulfoxide (DMSO) at 100-fold the highest final assay concentration; the resulting dilution series of compounds were diluted 1:10 with sterile water. Ten μl of the drug dilution series in 10% DMSO was transferred to microtiter wells and 90 μl of bacterial suspension was inoculated into the wells. All inoculated microdilution trays were incubated in ambient air at […] for 20 hours. Following incubation, assay plates were read in a microtiter plate reader at 600 nm and visually inspected to confirm the MIC endpoint well with the OD value. The lowest concentration of the compound that prevented visible growth was recorded as the MIC. Performance of the assay was monitored by testing ciprofloxacin against laboratory quality control strains in accordance with guidelines of the CLSI.

[1] = 1 nM P. aeruginosa LpxC, read-out: PA LpxC IC50

Row | SMILES | IC50 (P. aeruginosa LpxC; [1]) | MIC (P. aeruginosa PAO1) | PAO1 MIC (P. aeruginosa PAO1) | IC50 (P. aeruginosa LpxC; PA LpxC IC50, 1 nM P. aeruginosa LpxC)
1 | C[C@@](C[C@H]1CC(c2ccc(-c3ccc(OCCO)cc3)cc2)=NO1)(C(=O)NO)S(C)(=O)=O [Compound 50, (R)—N-hydroxy-3-((R)-3-(4′-(2-hydroxyethoxy)-[1,1′-biphenyl]-4-yl)-4,5-dihydroisoxazol-5-yl)-2-methyl-2-(methylsulfonyl)] | 0.7 nM | 0.18 µg/mL (≈ 0.389 µM) |  | 
2 | COCC(C)(O)c1ccc(-c2ccc(C3=NO[C@@H](C[C@](C)(C(=O)NO)S(C)(=O)=O)C3)cc2)cc1 (stereo partly drawn) [Compound 51, (2R)—N-hydroxy-3-((5R)-3-(4′-(2-hydroxy-1-methoxypropan-2-yl)-[1,1′-biphenyl]-4-yl)-4,5-dihydroisoxazol-5-yl)-2-methyl-2-(methylsulfonyl)propanamide] | 0.8 nM | 1.4 µg/mL (≈ 2.85 µM) |  | 
3 | C[C@@](C[C@H]1CC(c2ccc(C#CC3CC(CC#N)C3)cc2)=NO1)(C(=O)NO)S(C)(=O)=O (stereo partly drawn) [Compound 55, (R)-3-((R)-3-(4-((3-(cyanomethyl)cyclobutyl)ethynyl)phenyl)-4,5-dihydroisoxazol-5-yl)-N-hydroxy-2-methyl-2-(methylsulfonyl)propanamide] | < 0.5 nM | 0.5 µg/mL (≈ 1.13 µM) |  | 
4 | C[C@@](C[C@H]1CC(c2ccc(-c3cccc(CO)c3)cc2)=NO1)(C(=O)NO)S(C)(=O)=O [Compound 57, (R)—N-hydroxy-3-((R)-3-(3′-(hydroxymethyl)-[1,1′-biphenyl]-4-yl)-4,5-dihydroisoxazol-5-yl)-2-methyl-2-(methylsulfonyl)] | < 0.5 nM | 1 µg/mL (≈ 2.31 µM) |  | 
5 | C[C@@](C[C@H]1CC(c2ccc(-c3ccc(S(C)(=O)=O)cc3)cc2)=NO1)(C(=O)NO)S(C)(=O)=O [Compound 58, (R)—N-hydroxy-2-methyl-2-(methylsulfonyl)-3-((R)-3-(4′-(methylsulfonyl)-[1,1-biphenyl]-4-yl)-4,5-dihydroisoxazol-5-yl)] | < 0.5 nM | 0.5 µg/mL (≈ 1.04 µM) |  | 
6 | COc1ccc(-c2ccc(C3=NO[C@@H](C[C@](C)(C(=O)NO)S(C)(=O)=O)C3)cc2)c(F)c1 [Compound 59, (R)-3-((R)-3-(2′-fluoro-4′-methoxy-[1,1′-biphenyl]-4-yl)-4,5-dihydroisoxazol-5-yl)-N-hydroxy-2-methyl-2-(methylsulfonyl)] | < 0.5 nM | 0.35 µg/mL (≈ 0.777 µM) |  | 
7 | COC[C@H](O)Cc1ccc(-c2ccc(C3=NO[C@@H](C[C@](C)(C(=O)NO)S(C)(=O)=O)C3)cc2)cc1 [Compound 60, (R)—N-hydroxy-3-((R)-3-(4′-((R)-2-hydroxy-3-methoxypropyl)-[1,1′-biphenyl]-4-yl)-4,5-dihydroisoxazol-5-yl)-2-methyl-2-(methylsulfonyl)propanamide] | < 0.5 nM | 0.25 µg/mL (≈ 0.51 µM) |  | 
8 | CCC#Cc1ccc(C2=NO[C@@H](C[C@](C)(C(=O)NO)S(C)(=O)=O)C2)cc1 [Compound 62, (R)-3-((R)-3-(4-(but-1-yn-1-yl)phenyl)-4,5-dihydroisoxazol-5-yl)-N-hydroxy-2-methyl-2-(methylsulfonyl)propanamide] | < 0.5 nM | 0.33 µg/mL (≈ 0.872 µM) |  | 
9 | Cc1ccc(-c2ccc(C3=NO[C@@H](C[C@](C)(C(=O)NO)S(C)(=O)=O)C3)cc2)cn1 [Compound 67, (R)—N-hydroxy-2-methyl-3-((R)-3-(4-(6-methylpyridin-3-yl)phenyl)-4,5-dihydroisoxazol-5-yl)-2-(methylsulfonyl) propanamide] | < 0.5 nM | 0.35 µg/mL (≈ 0.838 µM) |  | 
10 | Cn1cc(-c2ccc(C3=NO[C@@H](C[C@](C)(C(=O)NO)S(C)(=O)=O)C3)cc2)ccc1=O [Compound 68, (R)—N-hydroxy-2-methyl-3-((R)-3-(4-(1-methyl-6-oxo-1,6-dihydropyridin-3-yl)phenyl)-4,5-dihydroisoxazol-5-yl)-2-(methylsulfonyl)propanamide] |  | 16 µg/mL (≈ 36.9 µM) |  | 2 nM
11 | CC(C)(C#N)c1ccc(-c2ccc(C3=NO[C@@H](C[C@](C)(C(=O)NO)S(C)(=O)=O)C3)cc2)cc1 [Compound 69, (R)-3-((R)-3-(4′-(2-cyanopropan-2-yl)-[1,1′-biphenyl]-4-yl)-4,5-dihydroisoxazol-5-yl)-N-hydroxy-2-methyl-2-(methylsulfonyl)propanamide] | < 0.5 nM | 0.71 µg/mL (≈ 1.51 µM) |  | 

More lines, main results first:

Row | IC50 (P. aeruginosa LpxC; [1]) | MIC (P. aeruginosa PAO1) | PAO1 MIC (P. aeruginosa PAO1) | SMILES | IC50 (P. aeruginosa LpxC; PA LpxC IC50, 1 nM P. aeruginosa LpxC)
12 | 0.8 nM | 1 µg/mL (≈ 2.23 µM) |  | COCC1CC(C#Cc2ccc(C3=NO[C@@H](C[C@](C)(C(=O)NO)S(C)(=O)=O)C3)cc2)C1 (stereo partly drawn) [Compound 52, (R)—N-hydroxy-3-((R)-3-(4-((3-(methoxymethyl)cyclobutyl)ethynyl)phenyl)-4,5-dihydroisoxazol-5-yl)-2-methyl-2-(methylsulfonyl)propanamide] | 
13 | 0.5 nM |  | 0.5 µg/mL | COCC1CC(C#Cc2ccc(C3=NO[C@@H](C[C@](C)(C(=O)NO)S(C)(=O)=O)C3)cc2)C1 (stereo partly drawn) [Compound 53, (R)—N-hydroxy-3-((R)-3-(4-((3-(methoxymethyl)cyclobutyl)ethynyl)phenyl)-4,5-dihydroisoxazol-5-yl)-2-methyl-2-(methylsulfonyl)propanamide] | 
14 | 0.7 nM | 1 µg/mL (≈ 2.37 µM) |  | C[C@@](C[C@H]1CC(c2ccc(C#CC3CC(F)C3)cc2)=NO1)(C(=O)NO)S(C)(=O)=O (stereo partly drawn) [Compound 54, (R)-3-((R)-3-(4-((3-fluorocyclobutyl)ethynyl)phenyl)-4,5-dihydroisoxazol-5-yl)-N-hydroxy-2-methyl-2-(methylsulfonyl) propanamide] | 
15 | 1 nM | 0.25 µg/mL (≈ 0.56 µM) |  | C[C@H](O)c1ccc(-c2ccc(C3=NO[C@@H](C[C@](C)(C(=O)NO)S(C)(=O)=O)C3)cc2)cc1 [Compound 56, (R)—N-hydroxy-3-((R)-3-(4′-((S)-1-hydroxyethyl)-[1,1′-biphenyl]-4-yl)-4,5-dihydroisoxazol-5-yl)-2-methyl-2-(methylsulfonyl)] | 
16 | < 0.5 nM | 0.25 µg/mL (≈ 0.53 µM) |  | C[C@@](C[C@H]1CC(c2ccc(-c3ccc(C(F)(F)F)nc3)cc2)=NO1)(C(=O)NO)S(C)(=O)=O [Compound 64, (R)—N-hydroxy-2-methyl-2-(methylsulfonyl)-3-((R)-3-(4-(6-(trifluoromethyl)pyridin-3-yl)phenyl)-4,5-dihydroisoxazol-5-yl)propanamide] | 
17 | < 0.5 nM | 1 µg/mL (≈ 2.31 µM) |  | C[C@@](C[C@H]1CC(c2ccc(-c3ccc(CO)nc3)cc2)=NO1)(C(=O)NO)S(C)(=O)=O [Compound 65, (R)—N-hydroxy-3-((R)-3-(4-(6-(hydroxymethyl)pyridin-3-yl)phenyl)-4,5-dihydroisoxazol-5-yl)-2-methyl-2-(methylsulfonyl)propanamide] | 
18 | < 0.5 nM | 0.25 µg/mL (≈ 0.577 µM) |  | COc1ccc(-c2ccc(C3=NO[C@@H](C[C@](C)(C(=O)NO)S(C)(=O)=O)C3)cc2)cn1 [Compound 66, (R)—N-hydroxy-3-((R)-3-(4-(6-methoxypyridin-3-yl)phenyl)-4,5-dihydroisoxazol-5-yl)-2-methyl-2-(methylsulfonyl)propanamide] | 
19 | 2 nM | 8 µg/mL (≈ 17 µM) |  | C[C@@](C[C@H]1CC(c2ccc(-c3ccnc(C(F)(F)F)c3)cc2)=NO1)(C(=O)NO)S(C)(=O)=O [Compound 70, (R)—N-hydroxy-2-methyl-2-(methylsulfonyl)-3-((R)-3-(4-(2-(trifluoromethyl)pyridin-4-yl)phenyl)-4,5-dihydroisoxazol-5-yl)] | 
20 | 6 nM | 0.71 µg/mL (≈ 1.65 µM) |  | CCc1cc(-c2ccc(C3=NO[C@@H](C[C@](C)(C(=O)NO)S(C)(=O)=O)C3)cc2)ccn1 [Compound 71, (R)-3-((R)-3-(4-(2-ethylpyridin-4-yl)phenyl)-4,5-dihydroisoxazol-5-yl)-N-hydroxy-2-methyl-2-(methylsulfonyl)propanamide] | 
